Molecules are shown by their SMILES. Counter-ions that a name gives are not always drawn. Like-named read-outs stand apart in the source and are kept apart here.

Results on 8 compounds are retold here after patent publication US6642398B2, “Mono-and disubstituted 3-propyl gamma-aminobutyric acids” (Warner-Lambert Company, priority 1999, dated 2003).

One data set has as its system DBA/2 mice. In words: Anticonvulsant % Protect (DBA2 mouse model of anticonvulsant efficacy). The class given is in vivo. As to conditions: for responders at 30 mg/kg: Mus musculus. On the procedure:
All procedures were carried out in compliance with the NIH Guide for the Care and Use of Laboratory Animals under a protocol approved by the Parke-Davis Animal Use Committee. Male DBA/2 mice, 3 to 4 weeks old were obtained from Jackson Laboratories, Bar Harbour, Me. Immediately before anticonvulsant testing, mice were placed upon a wire mesh, 4 inches square, suspended from a steel rod. The square was slowly inverted through 180° and mice observed for 30 seconds. Any mouse falling from the wire mesh was scored as ataxic (Coughenour L. L., McLean J. R., Parker R. B., “A new device for the rapid measurement of impaired motor function in mice,” Pharm. Biochem. Behav., 1977;6(3):351-3). Mice were placed into an enclosed acrylic plastic chamber (21 cm height, approximately 30 cm diameter) with a high-frequency speaker (4 cm diameter) in the center of the top lid. An audio signal generator (Protek model B-810) was used to produce a continuous sinusoidal tone that was swept linearly in frequency between 8 kHz and 16 kHz once each 10 msec. The average sound pressure level (SPL) during stimulation was approximately 100 dB at the floor of the chamber. Mice were placed within the chamber and allowed to acclimatize for one minute. DBA/2 mice in the vehicle-treated group responded to the sound stimulus (applied until tonic extension occurred, or for a maximum of 60 sec) with a characteristic seizure sequence consisting of wild running followed by clonic seizures, and later by tonic extension, and finally by respiratory arrest and death in 80% or more of the mice. In vehicle-treated mice, the entire sequence of seizures to respiratory arrest lasts approximately 15 to 20 seconds. The incidence of all the seizure phases in the drug-treated and vehicle-treated mice was recorded, and the occurrence of tonic seizures were used for calculating anticonvulsant ED50 values by probit analysis (Litchfield J. T., Wilcoxon F. “A simplified method for evaluating dose-effect experiments,” J. Pharmacol., 1949;96:99-113). Mice were used only once for testing at each dose point. Groups of DBA/2 mice (n=5-10 per dose) were tested for sound-induced seizure responses 2 hours (previously determined time of peak effect) after given drug orally. All drugs in the present study were dissolved in distilled water and given by oral gavage in a volume of 10 mL/kg of body weight. Compounds that are insoluble will be suspended in 1% carboxymethocellulose. Doses are expressed as weight of the active drug moiety.

Setting [1] is: 30 mg/kg PO, 1 h, read-out: Anticonvulsant % Protect 1 h.
[2] abbreviates: 30 mg/kg PO, 2 h, read-out: Anticonvulsant % Protect 2 h.

`CC[C@H](C)C[C@H](CN)CC(=O)O` [(3S,5S)-3-Aminomethyl-5-methyl-heptanoic acid]: the responders at 30 mg/kg with DBA/2 mice (setting [1]) and in the data set with DBA/2 mice (setting [2]) was 0% each time.

As for `CC(C)[C@@H](C)[C@@H](CN)CC(=O)O` [(3S,4R)3-Aminomethyl 4,5-dimethyl-hexanoic acid], the responders at 30 mg/kg in the data set on DBA/2 mice (setting [1]) and in the data set with DBA/2 mice (setting [2]) was 20% in each case. Consider `CCC(CC)CC(CN)CC(=O)O` (stereo not drawn), for which, in the data set with DBA/2 mice (Table 1, 2 hr), the “Anticonvulsant % Protect 2 hr” value is 20%. For the compound `CC(C)[C@@H](C)[C@H](CN)CC(=O)O` [(3R,4R)-3-Aminomethyl-4,5-dimethyl-hexanoic acid], the responders at 30 mg/kg in the data set with DBA/2 mice (setting [1]) and in the data set with DBA/2 mice (setting [2]) was 100% in each case. On to `CCCC(C(C)C)C(CN)CC(=O)O` (stereo not drawn) (as salt: HCl) [3-aminomethyl-4-isopropyl-heptanoic acid, 3-Aminomethyl-4-isopropyl-heptanoic acid], for which the melting point (usually the temperature of the solid-liquid transition) lay in the range of 160 to 170 °C. Take `CC[C@@H](C)C[C@H](CN)CC(=O)O` [(3S,5R)-3-Aminomethyl-5-methyl-heptanoic acid]: the responders at 30 mg/kg in the data set on DBA/2 mice (setting [1]) is 80%. In the case of `CC(C)[C@H](C)[C@H](CN)CC(=O)O` [(3R,4S)-3-Aminomethyl-4,5-dimethyl-hexanoic acid], the responders at 30 mg/kg in the data set with DBA/2 mice (setting [1]) was 20%; in the data set on DBA/2 mice (setting [2]) it was 0%. With `CC(C)C[C@H](CN)CC(=O)O` [Pregabalin, (S)-3-(Aminomethyl)-5-methylhexanoic acid, reference compound], in the data set on DBA/2 mice (30 mg/kg PO, 2 h), the “Anticonvulsant % Protect 2 h” value is 100%.
